Patent US9120749B2, “Quinoline derivatives and MELK inhibitors containing the same” (ONCOTHERAPY SCIENCE, INC., priority 2010, dated 2015)
Counter-ions that a name gives are not always drawn. Like-named read-outs stand apart in the source and are kept apart here.

How the values were obtained:
MELK = MELK (Homo sapiens, UniProt Q14680); experiment: Kinase assay: MELK activity, phosphorylation of FITC-labeled histone H3 peptide measured by IMAP fluorescence polarization; type: biochemical; conditions: 50 micro-M ATP, FITC-labeled histone H3 peptide substrate, IMAP fluorescence polarization, read-out: IC50 (μM) (kinase assay)
Summary of the method: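 Compounds, serially diluted from 12.5 mM DMSO stocks to 1% final DMSO, were tested with FITC-labeled histone H3 peptide as substrate. The reaction was stopped with progressive binding solution. Fluorescence polarization was read after 0.5 hour at room temperature.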

HT-1197 cells = experiment: Cell-based assay: anti-proliferative activity, Cell Counting Kit-8, 72 hours (HT-1197, negative control without MELK expression); conditions: HT1197 cells, no MELK expression (negative control), Cell Counting Kit-8 at 72 hours
Summary of the method: (§1)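 Anti-MELK western blot on crude lysates → MELK status per line. Cells plated 96-well, compound exposure, CCK-8 readout at 72 h; IC50 calculated.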

BT-549 cells = experiment: Cell-based assay: anti-proliferative activity, Cell Counting Kit-8, 72 hours (BT-549); conditions: BT549 cells, MELK-expressing, Cell Counting Kit-8 at 72 hours
Description: To evaluate the expression status of MELK in several cell lines, western blot analysis was performed using crude cell lysate collected from those cells. Anti-MELK antibody (clone 31, BD Biosciences) was used to visualize the expression.
Active candidate inhibitors against MELK were evaluated for their target-specific cytotoxicity using T47D, A549, BT-549, and HT-1197 cells was used for negative control. 100 micro-L of cell suspension was seeded onto 96-well microtiter plate (ViewPlate-96FTC, PerkinElmer). The initial cell concentration of T47D, A549, BT-549, and HT-1197 were 3,000 cells/well, 2,000 cells/well and 2,500 cells/well, respectively. Cellular growth was determined using Cell Counting Kit-8 (DOJINDO) at 72 hours after the exposure of the candidate inhibitors. […] Accurate IC50 values were calculated as described previously.

A549 cells = experiment: Cell-based assay: anti-proliferative activity, Cell Counting Kit-8, 72 hours (A549); conditions: MELK-expressing, Cell Counting Kit-8 at 72 hours
Summary of the method: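 A549 cells seeded in 96-well plates and exposed to candidate inhibitors for 72 hours. Growth measured with Cell Counting Kit-8; IC50 values calculated from the dose response.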

T47D cells = experiment: Cell-based assay: anti-proliferative activity, Cell Counting Kit-8, 72 hours (T47D); conditions: MELK-expressing, Cell Counting Kit-8 at 72 hours
Summary of the method: as §1

Chain of MELK (Q14680 whole entry, looked up): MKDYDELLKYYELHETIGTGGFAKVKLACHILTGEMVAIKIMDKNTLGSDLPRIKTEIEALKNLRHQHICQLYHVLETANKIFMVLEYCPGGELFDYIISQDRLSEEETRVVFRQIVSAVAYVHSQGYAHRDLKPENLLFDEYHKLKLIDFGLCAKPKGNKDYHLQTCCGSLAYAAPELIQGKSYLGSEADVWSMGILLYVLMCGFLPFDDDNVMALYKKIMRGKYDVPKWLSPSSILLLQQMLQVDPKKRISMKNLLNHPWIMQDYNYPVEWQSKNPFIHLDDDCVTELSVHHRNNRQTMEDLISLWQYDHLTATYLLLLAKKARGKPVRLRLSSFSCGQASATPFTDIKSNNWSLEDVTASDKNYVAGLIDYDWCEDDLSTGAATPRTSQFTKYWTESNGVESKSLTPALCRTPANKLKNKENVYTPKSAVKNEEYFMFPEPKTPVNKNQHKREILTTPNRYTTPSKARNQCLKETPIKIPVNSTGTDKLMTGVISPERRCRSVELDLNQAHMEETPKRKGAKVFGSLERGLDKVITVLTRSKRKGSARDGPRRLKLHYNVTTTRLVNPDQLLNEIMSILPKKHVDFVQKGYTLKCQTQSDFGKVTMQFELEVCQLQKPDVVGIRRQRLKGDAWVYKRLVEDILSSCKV

| Compound | IC50 (MELK) [µM] | IC50 (HT-1197 cells; Homo sapiens, HT1197, 72 h) [µM] | IC50 (BT-549 cells; Homo sapiens, BT-549, 72 h) [µM] | IC50 (A549 cells; Homo sapiens, A549, 72 h) [µM] | IC50 (T47D cells; Homo sapiens, T47D, 72 h) [µM] | IC50 (MELK; dihydrochloride) [µM] | IC50 (HT-1197 cells; dihydrochloride) [µM] | IC50 (BT-549 cells; dihydrochloride) [µM] | IC50 (A549 cells; dihydrochloride) [µM] | IC50 (T47D cells; dihydrochloride) [µM] |
| --- | --- | --- | --- | --- | --- | --- | --- | --- | --- | --- |
| COc1cc(-c2ccc3ncc(C(=O)C4CC4)c(NCC4CCNCC4)c3c2)cc(Cl)c1O [Example 243] | 0.0044 | 7.3 | 1.8 | 0.62 | 0.33 | – | – | – | – | – |
| COc1cc(-c2ccc3ncc(C(=O)C4CC4)c(NCC4CCN(C)CC4)c3c2)cc(Cl)c1O [Example 201, {6-(3-Chloro-4-hydroxy-5-methoxyphenyl)-4-[(1-methylpiperidin-4-yl)methylamino]quinolin-3-yl}(cyclopropyl)methanone] | 0.0034 | 7.4 | 1.8 | 0.73 | 0.76 | – | – | – | – | – |
| CC(C)C(=O)c1cnc2ccc(-c3cc(F)c(O)c(Cl)c3)cc2c1N[C@H]1CC[C@H](N)CC1 [Example 205, 1-{4-[trans-4-Aminocyclohexylamino]-6-(3-chloro-5-fluoro-4-hydroxyphenyl)quinolin-3-yl}-2-methylpropan-1-one] | 0.01 | 2.4 | 0.15 | 0.6 | 0.066 | – | – | – | – | – |
| COc1cc(-c2ccc3ncc(C(=O)C4CC4)c(N4CCC(N5CCN(C)CC5)CC4)c3c2)cc(Cl)c1O [Example 351, {6-(3-Chloro-4-hydroxy-5-methoxyphenyl)-4-[4-(4-methylpiperazin-1-yl)piperidin-1-yl]quinolin-3-yl}(cyclopropyl)methanone] | 0.0022 | 3 | 0.67 | 0.33 | 0.34 | – | – | – | – | – |
| COc1cc(-c2ccc3ncc(C(=O)C4CC4)c(N[C@H]4CC[C@@H](N)CC4)c3c2)ccc1O [Example 165, {4-(cis-4-Aminocyclohexylamino)-6-(4-hydroxy-3-methoxyphenyl)quinolin-3-yl}(cyclopropyl)methanone] | 0.0019 | 2.1 | 0.93 | 0.45 | 0.57 | – | – | – | – | – |
| CN(C)CC1CCN(c2c(C(=O)C3CC3)cnc3ccc(-c4ccc(O)c(Cl)c4)cc23)CC1 [Example 279, [6-(3-Chloro-4-hydroxyphenyl)-4-{4-[(dimethylamino)methyl]piperidin-1-yl}quinolin-3-yl](cyclopropyl)methanone] | 0.0046 | 6.7 | 0.86 | 0.3 | 0.21 | – | – | – | – | – |
| N[C@H]1CC[C@H](Nc2c(C(=O)C3CC3)cnc3ccc(-c4cn[nH]c4)cc23)CC1 [Example 213, {4-[trans-4-Aminocyclohexylamino]-6-(1H-pyrazol-4-yl)quinolin-3-yl}(cyclopropyl)methanone] | 0.067 | 14 | 1.7 | 5.1 | 0.89 | – | – | – | – | – |
| CN(C)[C@H]1CC[C@H](Nc2c(C(=O)C3CC3)cnc3cc(F)c(-c4cc(F)c(O)c(F)c4)cc23)CC1 [Example 294, Cyclopropyl{6-(3,5-difluoro-4-hydroxyphenyl)-4-[trans-4-(dimethylamino)cyclohexylamino]-7-fluoroquinolin-3-yl}methanone] | 0.042 | 1.5 | 0.55 | 0.43 | 0.68 | – | – | – | – | – |
| CC(C)C(=O)c1cnc2ccc(-c3cc(Cl)c(O)c(Cl)c3)cc2c1N[C@H]1CC[C@H](N)CC1 [Example 225(b), 1-{4-[trans-4-Aminocyclohexylamino]-6-(3,5-dichloro-4-hydroxyphenyl)quinolin-3-yl}-2-methylpropan-1-one dihydrochloride] | – | – | – | – | – | 0.0028 | 1.6 | 0.17 | 0.22 | 0.048 |
| O=C(c1cnc2ccc(-c3cc(F)c(O)c(Cl)c3)cc2c1N1CCC(CN2CCCC2)CC1)C1CC1 [Example 283, {6-(3-Chloro-5-fluoro-4-hydroxyphenyl)-4-[4-(pyrrolidin-1-ylmethyl)piperidin-1-yl]quinolin-3-yl}(cyclopropyl)methanone] | 0.0029 | 3 | 0.72 | 0.54 | 0.35 | – | – | – | – | – |
| COc1cc(-c2ccc3ncc(C(=O)C4CC4)c(N4CCC(CN(C)C)CC4)c3c2)ccc1O [Example 133, Cyclopropyl[4-{4-[(dimethylamino)methyl]piperidin-1-yl}-6-(4-hydroxy-3-methoxyphenyl)quinolin-3-yl]methanone] | 0.0036 | 1.9 | 1.7 | 0.79 | 0.7 | – | – | – | – | – |
| CCN(CC)[C@H]1CC[C@@H](Nc2c(C(=O)C3CC3)cnc3ccc(-c4cc(Cl)c(O)c(OC)c4)cc23)CC1 [Example 311, {6-(3-Chloro-4-hydroxy-5-methoxyphenyl)-4-[cis-4-(diethylamino)cyclohexylamino]quinolin-3-yl}(cyclopropyl)methanone] | 0.0032 | 7.6 | 1.5 | 0.21 | 0.51 | – | – | – | – | – |
| COc1cc(-c2ccc3ncc(C(=O)C4CC4)c(N[C@H]4CC[C@H](N(C)C)CC4)c3c2)cc(Cl)c1O [Example 255, {6-(3-Chloro-4-hydroxy-5-methoxyphenyl)-4-[trans-4-(dimethylamino)cyclohexylamino]quinolin-3-yl}(cyclopropyl)methanone] | 0.0019 | 1.9 | 0.64 | 0.18 | 0.28 | – | – | – | – | – |
| CCN(CC)C1CCC(Nc2c(S(C)(=O)=O)cnc3ccc(-c4cc(Cl)c(O)c(OC)c4)cc23)CC1 (stereo not drawn) [Example 240, 2-Chloro-4-{4-[4-(diethylamino)cyclohexylamino]-3-(methylsulfonyl)quinolin-6-yl}-6-methoxyphenol dihydrochloride] | 0.0053 | 3.8 | 1.5 | 0.78 | 0.97 | – | – | – | – | – |
| COc1cc(-c2ccc3ncc(C(=O)C4CC4)c(N4CCC(CN5CCCC5)CC4)c3c2)cc(Cl)c1O [Example 280, {6-(3-Chloro-4-hydroxy-5-methoxyphenyl)-4-[4-(pyrrolidin-1-ylmethyl)piperidin-1-yl]quinolin-3-yl}(cyclopropyl)methanone] | 0.0017 | 2.9 | 0.71 | 0.2 | 0.25 | – | – | – | – | – |
| N#Cc1ccc(-c2ccc3ncc(C(=O)C4CC4)c(N[C@H]4CC[C@H](N)CC4)c3c2)s1 [Example 119, 5-{4-[trans-4-Aminocyclohexylamino]-3-(cyclopropanecarbonyl)quinolin-6-yl}thiophene-2-carbonitrile] | 0.046 | 8 | 14 | 5.4 | 8.8 | – | – | – | – | – |
| COc1cc(-c2ccc3ncc(C(=O)C4CC4)c(NC4CCN(C)CC4)c3c2)cc(Cl)c1O [Example 249] | 0.0079 | 4.4 | 1.3 | 0.3 | 0.83 | – | – | – | – | – |
| O=C(c1cnc2ccc(-c3ccc(O)c(Cl)c3)cc2c1NCCN1CCNCC1)C1CC1 [Example 215, {6-(3-Chloro-4-hydroxyphenyl)-4-[2-(piperazin-1-yl)ethylamino]quinolin-3-yl}(cyclopropyl)methanone] | 0.017 | 3.9 | 1.5 | 1.2 | 0.92 | – | – | – | – | – |
